Like-named read-outs stand apart in the source and are kept apart here.
Experiments:
HeLa (cervical cancer) = test: MTT cell viability assay, HeLa; type: cell-based, human; details: for IC50: 72 h of incubation, mean ± SD
Procedure: (§1) All chemicals, if not stated otherwise, were obtained from Sigma-Aldrich (St. Louis, MO, USA). The MCF-7 cell line was purchased from Cell Lines Services (Eppelheim, Germany), the HeLa and HCT-116 cell lines were obtained from the Department of Microbiology, Tumor and Cell Biology, Karolinska Institute (Stockholm, Sweden). Cells were cultured in Dulbecco’s modified Eagle’s medium (DMEM) supplemented with 10% fetal bovine serum, 2 mM glutamine, 100 units/mL penicillin, and 100 μg/mL streptomycin. Cultures were maintained in a humidified atmosphere with 5% CO2 at 37 °C in an incubator (HeraCell, Heraeus, Langenselbold, Germany).
(§2) Cell viability was determined using the MTT (3-(4,5-dimethylthiazol-2-yl)-2,5-diphenyl-tetrazoliumbromide) assay. Stock solutions of the studied compounds were prepared in 100% DMSO. […] Cells were seeded in 96-well plates at a density of 5 × 10^3 cells/well and treated for 72 h with the examined compounds in the concentration range 1–100 μM (1, 10, 25, 50 and 100 μM). Following treatment, MTT (0.5 mg/mL) was added to the medium and cells were further incubated for 2 h at 37 °C. Cells were lysed with DMSO and the absorbance of the formazan solution was measured at 550 nm with a plate reader (1420 multilabel counter, Victor, Jügesheim, Germany). […] The experiment was performed in triplicate. Values are expressed as the mean ± SD of at least three independent experiments.

MCF-7 (breast cancer) = test: MTT cell viability assay, MCF-7; type: cell-based, human; details: Homo sapiens, MCF7, 72 h of incubation, mean ± SD
Procedure: as §1, §2

[1] = system: HeLa as well as HCT-116 cells; test: MTT cell viability assay, HeLa and HCT-116; type: cell-based, human; details: summary over the two cell lines; for IC50: Homo sapiens, read-out: IC50 toward HeLa as well as HCT-116
Procedure: as §1, §2

HCT-116 (colon cancer) = test: MTT cell viability assay, HCT-116; type: cell-based, human; details: 72 h of incubation, mean ± SD
Procedure: as §1, §2

[2] = Metabolic stability with human liver microsomes and NADPH; type: in vitro ADME; details: liver microsomes
Procedure: Stock solutions of studied compounds were prepared at concentration of 10 mM in DMSO. […] Incubation mixture contained 10 μM of a studied derivative, 1 mM of NADPH (Sigma-Aldrich) and 0.5 mg/mL of human liver microsomes (HLM, Sigma-Aldrich) in potassium phosphate buffer (0.1 M, pH 7.4). Incubation was carried out in thermostat at 37 °C and started by addition of studied compound. 50 μL samples were taken after 5, 15, 30, 45 and 60 min. Enzymatic reaction was terminated by the addition of the equal volume of ice-cold acetonitrile containing 10 μM of alprazolam (Sigma-Aldrich) serving as internal standard (IS). Control incubations were performed without NADPH to assess chemical instability. After collection, samples were immediately centrifuged (10 min, 10,000 rpm) and resulted supernatant was directly analyzed or kept in −80 °C until LC-MS analysis. Natural logarithm of a compound over IS peak area ratio was plotted versus incubation time. Metabolic half-time (t1/2) was calculated from the slope of the linear regression, as reported in [48].
LC-MS analysis was performed on an Agilent 1260 system coupled to SingleQuad 6120 mass spectrometer (Agilent Technologies, Santa Clara, CA, USA). Ascentis Express ES-CN (2.1 mm × 100 mm, 2.7 μm, Supelco Analytical, Bellefonte, PA, USA) was used in reversed-phase mode with gradient elution starting with 50% of phase A (10 mM ammonium formate in water) and 50% of phase B (10 mM ammonium formate in acetonitrile-water mixture, 95:5 v/v). […] Total analysis time was 10 min at 25 °C, flow rate was 0.4 mL/min and the injection volume was 20 μL. The mass spectrometer was equipped with electrospray ion source and operated in positive ionization. Mass analyzer was set individually to each compound to detect [M + H]^+ pseudomolecular ions. MSD parameters of the ESI source were as follows: nebulizer pressure 50 psig (N2), drying gas […] (N2), drying gas temperature 300 °C, capillary voltage 3.5 kV, fragmentor voltage 100 V.

HCT-116, HeLa and MCF-7 = test: MTT cell viability assay, all tested cell lines together; type: cell-based; details: Homo sapiens; average over HCT-116, HeLa and MCF-7; read-out: average IC50 against all tested cell lines
Procedure: as §1, §2

MCF-7 [3] = test: Cell cycle analysis (sub-G1, DAPI flow cytometry), MCF-7; type: cell-based, human; details: MCF-7, 24 h, mean ± SD
Procedure: One of the most common mechanisms in anticancer drug treatment is changes in cell cycle, which can be measured by DNA content. Cell cycle distribution in HCT-116, HeLa and MCF-7 cells was examined to determine cycle arrest and/or presence of sub-G1 after treatment with compounds 37 and 46. […] Cell populations data are expressed as the mean ± SD of at least three independent experiments.
Following treatment, cells were fixed in cold 70% ethanol for 30 min. Fixed cells were stained for 15 min in buffer containing 500 μg/mL RNAse A (EURx, Gdansk, Poland) and 2.5 μg/mL of DAPI (Sigma-Aldrich, Munich, Germany). The fluorescence of DAPI was measured at 440 ± 40 nm with a flow cytometer (LSR II, BD Biosciences, Mountain View, CA, USA). Each experiment was performed at least in triplicate. Data were analyzed off-line using the BD FACSDiva (BD Biosciences).

MCF-7 [4] = test: Mitochondrial membrane potential (JC-1), MCF-7; type: cell-based, human; details: MCF-7, 24 h, low and moderate concentrations
Procedure: Loss of the mitochondrial membrane potential (Δψm) is one of the earliest indicators of an apoptosis. It can be detected using fluorescent dye JC-1 (5,5′,6,6′-tetrachloro-1,1′,3,3′-tetraethylbenzimidazolylcarbocyanine iodide) exited with blue laser. JC-1 spontaneously forms dimer complexes (J aggregates) with red fluorescent or remain as a monomers with green fluorescence in cells with high and low Δψm, respectively.
Half an hour before the end of 24 h-treatment 2.5 μg/mL of JC-1 (5,5′,6,6′-tetrachloro-1,1′,3,3′-tetraethylbenzimidazolylcarbocyanine iodide) was added to the cell medium. As a negative control 100 μM CCCP (carbonyl cyanide 3-chlorophenylhydrazone) was used 15 min before JC-1 treatment. Following treatment cells were twice washed with PBS and analyzed with flow cytometer (LSR II, BD Biosciences).
Green and red fluorescence were observed using FL-1 (530 ± 30 nm) and FL-2 (585 ± 42 nm) channels, respectively. Percentage of cell population in red or green fluorescence gate indicated the level of Δψm. Decreasing red fluorescence cell population indicated lower Δψm.

[5] = pH 7.4, human liver microsomes 0.5 mg/mL, 1 mM NADPH, 10 μM compound, pH 7.4, 37 °C, up to 60 min, read-out: In Vitro Metabolic Half-Life t1/2
[6] = pH 7.4, value in parentheses beside >60, beyond the 60 min incubation, human liver microsomes, NADPH, read-out: In Vitro Metabolic Half-Life t1/2 (min), value in parentheses

SMILES | IC50 (HeLa (cervical cancer); Homo sapiens, 72 h) | IC50 (MCF-7 (breast cancer)) | IC50 toward HeLa as well as HCT-116 [1] | IC50 (HCT-116 (colon cancer); Homo sapiens, HCT-116, 72 h) | half-life at 10 μM [2, 5] | IC50 (HCT-116, HeLa and MCF-7) | IC50 [1] | half-life at 10 μM [2, 6] | IC50 (HeLa (cervical cancer)) | IC50 (HCT-116 (colon cancer)) | melting point | Sub-G1 cell population (MCF-7 [3]) | effect on mitochondrial membrane potential (Δψm) (MCF-7 [4]) | viability at 100 µM (HeLa (cervical cancer); Homo sapiens, HeLa, 72 h, 100 μM, read-out: Viability of cell line at 100 μM (HeLa))
Cc1cc(S(=O)(=O)Nc2nncc(-c3ccc(C(F)(F)F)cc3)n2)c(SCc2ccccc2)cc1Cl [Compound 28, 2-Benzylthio-4-chloro-5-methyl-N-[5-(4-trifluoromethylphenyl)-1,2,4-triazin-3-yl]benzenesulfonamide] | 100 ± 6 µM | 120 ± 5 µM | loss of activity | 200 ± 4 µM |  |  |  |  |  |  |  |  |  | 
COc1cccc(-c2cnnc(NS(=O)(=O)c3cc(C)c(Cl)cc3SCc3ccccc3)n2)c1 [Compound 30, 2-Benzylthio-4-chloro-N-[5-(3-methoxyphenyl)-1,2,4-triazin-3-yl]5-methylbenzenesulfonamide] | 90 ± 4 µM | 67 ± 1 µM |  | 85 ± 2 µM | 24.9 min |  |  |  |  |  |  |  |  | 
COc1ccc(-c2cnnc(NS(=O)(=O)c3cc(C)c(Cl)cc3SCc3ccccc3)n2)cc1OC [Compound 31, 2-Benzylthio-4-chloro-N-[5-(3,4-dimethoxyphenyl)-1,2,4-triazin-3-yl]-5-methylbenzenesulfonamide] | 150 ± 6 µM | 77 ± 2 µM |  | 140 ± 7 µM | 17.6 min |  |  |  |  |  |  |  |  | 
Cc1cc(S(=O)(=O)Nc2nncc(-c3ccc(C(F)(F)F)cc3)n2)c(SCc2ccc(C(F)(F)F)cc2)cc1Cl [Compound 34, 4-Chloro-5-methyl-2-[4-(trifluoromethyl)benzylthio]-N-[5-(4-trifluoromethylphenyl)-1,2,4-triazin-3-yl]-benzenesulfonamide] | 73 ± 1 µM | 68 ± 3 µM |  | 51 ± 1 µM | > 60 min | < 71 µM | 51 to 85 µM | 154 min |  |  |  |  |  | 
COc1ccc(-c2cnnc(NS(=O)(=O)c3cc(C)c(Cl)cc3SCc3ccc(C(F)(F)F)cc3)n2)cc1 [Compound 35, 4-Chloro-N-[5-(4-methoxyphenyl)-1,2,4-triazin-3-yl]-5-methyl-2-[4-(trifluoromethyl)benzylthio]benzene-sulfonamide] | 69 ± 1 µM | 78 ± 2 µM |  | 68 ± 3 µM | 42.4 min | < 71 µM |  |  |  |  |  |  |  | 
Cc1cc(S(=O)(=O)Nc2nncc(-c3cccc(F)c3)n2)c(SCc2cccc3ccccc23)cc1Cl [Compound 36, 4-Chloro-N-[5-(3-fluorophenyl)-1,2,4-triazin-3-yl]-5-methyl-2-[(naphthalene-1-yl)methylthio]benzene-sulfonamide] | 55 ± 2 µM | 96 ± 4 µM |  | 49 ± 2 µM | 13.9 min | < 71 µM |  |  |  |  |  |  |  | 
COc1ccc(-c2cnnc(NS(=O)(=O)c3cc(C)c(Cl)cc3SCc3cccc4ccccc34)n2)cc1 [Compound 38, 4-Chloro-N-[5-(4-methoxyphenyl)-1,2,4-triazin-3-yl]-5-methyl-2-[(naphthalene-1-yl)methylthio]benzene-sulfonamide] | 34 to 42 µM | 69 ± 1 µM |  | 36 to 38 µM | < 5 min | 50 µM |  |  | 42 ± 1 µM | 38 ± 2 µM |  |  |  | 
Cc1cc(S(=O)(=O)Nc2nncc(-c3cccc(F)c3)n2)c(SCc2c(C)noc2C)cc1Cl [Compound 39, 4-Chloro-2-[(3,5-dimethylizoxazol-4-yl)methylthio]-N-[5-(3-fluorophenyl)-1,2,4-triazin-3-yl]-5-methyl-benzenesulfonamide] | 93 ± 1 µM | 95 ± 3 µM |  | 83 ± 2 µM |  |  |  |  |  |  | 208 to 211 °C |  |  | 
Cc1cc(S(=O)(=O)Nc2nncc(-c3ccc(C(F)(F)F)cc3)n2)c(SCc2c(C)noc2C)cc1Cl [Compound 40, 4-Chloro-2-[(3,5-dimethylizoxazol-4-yl)methylthio]-5-methyl-N-[5-(4-trifluoromethylphenyl)-1,2,4-triazin-3-yl]benzenesulfonamide] | 85 ± 2 µM | 98 ± 3 µM |  | 77 ± 1 µM |  |  | 51 to 85 µM |  |  |  |  |  |  | 
O=C(Nc1ccc(Cl)cc1)c1cc(S(=O)(=O)Nc2nncc(-c3ccc(C(F)(F)F)cc3)n2)c(SCc2ccccc2)cc1Cl [Compound 46, 4-Benzylthio-2-chloro-N-(4-chlorophenyl)-5-{N-[5-(4-trifluoromethylphenyl)-1,2,4-triazin-3-yl]sulfamoyl}-benzamide] | 80 ± 2 µM | 59 ± 2 µM |  | 64 ± 1 µM | > 60 min | < 71 µM |  | 78.1 min |  |  |  | 20% ± 5.6% | remarkably decreased Δψm | 
COc1ccc(-c2cnnc(NS(=O)(=O)c3cc(C(=O)Nc4ccc(Cl)cc4)c(Cl)cc3SCc3ccccc3)n2)cc1 [Compound 47, 4-Benzylthio-2-chloro-N-(4-chlorophenyl)-5-{N-[5-(4-methoxyphenyl)-1,2,4-triazin-3-yl]sulfamoyl}benzamide] | 79 ± 1 µM | 78 ± 3 µM |  | 75 ± 5 µM | 17.5 min |  |  |  |  |  |  |  |  | 
Cc1ccc(NC(=O)c2cc(S(=O)(=O)Nc3nncc(-c4ccc(C(F)(F)F)cc4)n3)c(SCc3ccccc3)cc2Cl)cc1 [Compound 52, 4-Benzylthio-2-chloro-N-(4-methylphenyl)-5-{N-[5-(4-trifluoromethylphenyl)-1,2,4-triazin-3-yl]sulfamoyl}-benzamide] |  | 69 ± 1 µM |  | 70 ± 2 µM | 26.5 min |  |  |  |  |  |  |  |  | 100%
